Results on eight compounds are retold here after PubChem BioAssay (NCI).

Where “and” joins values, the source holds several entries; their conditions need not be identical. Equal values may be shown once.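 The compound was tested at five concentrations on cells cultured in 96-well plates, with a 48-hour exposure period. At the GI50, growth is halved. TGI marks complete inhibition of growth.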

Test systems include COLO 205 colon; SR leukemia; A549 NSCLC; RPMI-8226 leukemia; U251 CNS; A498 renal; K-562 leukemia; SK-MEL-28 melanoma; T-47D breast; NCI-H226 lung.
What all share (experiment): NCI-60 cell line screen, 48 h

For the compound `Cc1oc2c(c1C(=O)c1ccccc1)C(=O)c1ccccc1C2=O`, the TGI with COLO 205 colon is 36.5 µM; in the assay on SR leukemia, above 36.6 µM; with A549 NSCLC, 40.2 µM; with RPMI-8226 leukemia it was 23.8 µM; with U251 CNS, 21 µM; in the assay on A498 renal it was 33.9 µM. Besides, the TGI in the assay with K-562 leukemia was found to be 5.89 µM; in the assay on SK-MEL-28 melanoma it was 24.3 µM; in the assay with T-47D breast, 7.04 µM; with NCI-H226 lung, 23.3 µM.

As to `CC/C(=C(\c1ccc(O)cc1)c1ccc(OCCNC)cc1)c1ccccc1`, the GI50 is 1.78 µM and 1.8 µM in the assay with COLO 205 colon; 2.42 µM and 1.63 µM and 2.22 µM in the assay with SR leukemia; 2.33 µM and 1.79 µM and 1.74 µM in the assay on A549 NSCLC; 2.08 µM and 1.99 µM and 2.27 µM in the assay on RPMI-8226 leukemia; 1.57 µM and 1.5 µM and 1.66 µM in the assay with U251 CNS; 2.33 µM and 1.84 µM with A498 renal. The GI50 was 2 µM and 1.74 µM and 2.11 µM in the assay with K-562 leukemia; 1.67 µM and 1.55 µM and 1.74 µM in the assay on SK-MEL-28 melanoma; 1.3 µM and 1.21 µM and 1.25 µM in the assay with T-47D breast; 9.26 µM and 6.49 µM and 4.33 µM in the assay with NCI-H226 lung. Further, the TGI in the assay on COLO 205 colon was 3.28 µM and 3.31 µM and 3.44 µM; with SR leukemia it was 5.85 µM and 4.11 µM and 5.54 µM; in the assay with A549 NSCLC, 5.55 µM and 3.49 µM and 3.75 µM; in the assay on RPMI-8226 leukemia it was 5.05 µM and 4.58 µM and 5.73 µM; in the assay with U251 CNS, 2.92 µM and 2.83 µM and 3.15 µM; in the assay with A498 renal it was 10.2 µM and 4.12 µM and 8.67 µM. In addition, the TGI was 4.88 µM and 3.89 µM and 5.66 µM in the assay with K-562 leukemia; 3.04 µM and 2.94 µM and 3.28 µM in the assay on SK-MEL-28 melanoma; 3.83 µM and 3.43 µM and 4.01 µM in the assay with T-47D breast; 28.4 µM and 23.7 µM and 17 µM in the assay on NCI-H226 lung.

In the case of `O=S(=O)(Nc1ccc(Cl)c(C(F)(F)F)c1)c1ccc(-c2cnc(C3CC3)o2)cc1`, the GI50 in the assay with COLO 205 colon is 0.419 µM; in the assay with SR leukemia, 0.0822 µM; with A549 NSCLC it was 0.577 µM; in the assay on RPMI-8226 leukemia, 1.35 µM; in the assay with U251 CNS it was 0.326 µM; with A498 renal, 0.0814 µM. Moreover, the GI50 in the assay with K-562 leukemia was 0.117 µM; in the assay on SK-MEL-28 melanoma it was 1.17 µM; in the assay with T-47D breast, 0.289 µM; in the assay on NCI-H226 lung, 1.41 µM. Besides, the TGI is 2.33 µM in the assay on COLO 205 colon; above 23 µM in the assay with SR leukemia; above 35.6 µM in the assay on A549 NSCLC; 5.64 µM with RPMI-8226 leukemia; 10.9 µM in the assay on U251 CNS; 1.23 µM in the assay on A498 renal. Also, the TGI is above 100 µM in the assay on K-562 leukemia, 5.79 µM in the assay with SK-MEL-28 melanoma, 8.92 µM in the assay with T-47D breast and 4.73 µM with NCI-H226 lung.

`CS(=O)(=O)c1ccc(C(F)(F)F)cc1NC(=O)Nc1cnc(Oc2ccc(-c3cc(Cl)cnc3N)cc2)nc1`: the GI50 in the assay on COLO 205 colon was 1.98 µM; with SR leukemia, 1.98 µM; in the assay with A549 NSCLC, 3.07 µM; in the assay with RPMI-8226 leukemia it was 2.33 µM; with U251 CNS, 2.56 µM; in the assay with A498 renal, 1.78 µM. In addition, the GI50 with K-562 leukemia is 2.23 µM; in the assay with SK-MEL-28 melanoma it was 2.21 µM; in the assay on T-47D breast it was 2.05 µM; in the assay on NCI-H226 lung, 2.75 µM. In addition, the TGI in the assay on COLO 205 colon was 4.77 µM; in the assay with SR leukemia, 4.66 µM; with A549 NSCLC it was above 32.1 µM; in the assay with RPMI-8226 leukemia, 6.53 µM; in the assay with U251 CNS, 12.3 µM; with A498 renal, 5.09 µM. The TGI with K-562 leukemia was 5.51 µM; in the assay with SK-MEL-28 melanoma it was 5.62 µM; in the assay with T-47D breast it was 7.7 µM; in the assay on NCI-H226 lung, 26.3 µM.

`COc1cc(/C=C2\C(=O)N(c3c(Cl)cccc3Cl)c3ccccc32)cc(OC)c1O`: the GI50 in the assay with COLO 205 colon was 5.94 µM; in the assay on SR leukemia, 0.0847 µM; in the assay with A549 NSCLC, 1.24 µM; in the assay on RPMI-8226 leukemia, 0.718 µM; with U251 CNS, 0.315 µM; with A498 renal, 5.59 µM. For the same compound, the GI50 in the assay with K-562 leukemia was 0.243 µM; in the assay on SK-MEL-28 melanoma, 1.25 µM; in the assay on T-47D breast it was 2.89 µM; with NCI-H226 lung it was 7.91 µM. Moreover, the TGI in the assay with COLO 205 colon is 18.7 µM; in the assay on A549 NSCLC, 10.1 µM; in the assay with RPMI-8226 leukemia it was 11.7 µM; with U251 CNS, 13.5 µM; with A498 renal it was 16.1 µM; in the assay with K-562 leukemia, above 66.6 µM. The TGI in the assay on SK-MEL-28 melanoma was 13.5 µM; in the assay with T-47D breast it was 17.8 µM; with NCI-H226 lung, 29 µM.

Take `O=[N+]([O-])c1ccc2nc(N/N=C/c3ccc(O)cc3)sc2c1`: the GI50 in the assay with COLO 205 colon is 12.4 µM; with SR leukemia it was 3.07 µM; in the assay with A549 NSCLC, 3.52 µM; in the assay with RPMI-8226 leukemia it was 2.56 µM; in the assay with U251 CNS it was 4.56 µM; with A498 renal it was 5.19 µM. Moreover, the GI50 is 2.58 µM in the assay on K-562 leukemia, 9.43 µM in the assay with SK-MEL-28 melanoma, 3.01 µM in the assay on T-47D breast and 17.5 µM in the assay with NCI-H226 lung. The TGI with COLO 205 colon amounted to 32.1 µM; in the assay on SR leukemia, 20.7 µM; with A549 NSCLC it was 29.4 µM; in the assay on RPMI-8226 leukemia, 15.8 µM; with U251 CNS, 67.5 µM; in the assay with A498 renal, 27.2 µM. Besides, the TGI in the assay with K-562 leukemia was above 100 µM; in the assay with SK-MEL-28 melanoma it was 57.2 µM; with T-47D breast, 13.2 µM; with NCI-H226 lung, 62.8 µM.

Turning to `O=[N+]([O-])c1ccc(N(CCO)CCO)c2c1no[n+]2[O-]`, the GI50 in the assay on COLO 205 colon is 0.852 µM; with SR leukemia, 0.215 µM; in the assay with A549 NSCLC, 1.83 µM; in the assay on RPMI-8226 leukemia, 1.22 µM; with U251 CNS it was 0.655 µM; with A498 renal it was 1.58 µM. Besides, the GI50 is 1.58 µM in the assay with K-562 leukemia, 1.98 µM with SK-MEL-28 melanoma, 1.36 µM with T-47D breast and 2.01 µM in the assay on NCI-H226 lung. The TGI was found to be 2.22 µM with COLO 205 colon; 0.899 µM in the assay on SR leukemia; 8.92 µM in the assay on A549 NSCLC; 4.08 µM in the assay with RPMI-8226 leukemia; 2.37 µM in the assay with U251 CNS; 3.68 µM in the assay with A498 renal. For the same compound, the TGI in the assay with K-562 leukemia is 4.65 µM; in the assay on SK-MEL-28 melanoma, 5.66 µM; with T-47D breast, 5.46 µM; in the assay on NCI-H226 lung it was 6.59 µM.

Regarding `Cc1ccnc2c1NC(=O)c1cccnc1N2C1CC1`, the GI50 in the assay on COLO 205 colon, in the assay on SR leukemia, in the assay with A549 NSCLC, in the assay with RPMI-8226 leukemia, with U251 CNS and in the assay on A498 renal was above 100 µM throughout. Moreover, the GI50 in the assay on K-562 leukemia, in the assay on SK-MEL-28 melanoma, with T-47D breast and in the assay with NCI-H226 lung was above 100 µM throughout. The TGI with COLO 205 colon, in the assay on SR leukemia, with A549 NSCLC, in the assay with RPMI-8226 leukemia, in the assay with U251 CNS and in the assay with A498 renal was above 100 µM in each case. Besides, the TGI with K-562 leukemia, with SK-MEL-28 melanoma, in the assay on T-47D breast and in the assay on NCI-H226 lung was above 100 µM in each case.
